Data published in PubChem BioAssay AID1552 (Sanford-Burnham Center for Chemical Genomics, 2009).
Activity calls are given as the source filed them. How the calls were made is not given here. Residues, ends and D or L forms follow the SMILES beside them.

Molecular target: Ubiquitin-conjugating enzyme E2 N (Homo sapiens) (UniProt P61088)
Assay: UBE2N binders by NMR, biophysical, purified protein (AID 1552)
Details: NMR binding to purified UBE2N

Chain of Ubiquitin-conjugating enzyme E2 N (Homo sapiens) (P61088 whole entry, looked up): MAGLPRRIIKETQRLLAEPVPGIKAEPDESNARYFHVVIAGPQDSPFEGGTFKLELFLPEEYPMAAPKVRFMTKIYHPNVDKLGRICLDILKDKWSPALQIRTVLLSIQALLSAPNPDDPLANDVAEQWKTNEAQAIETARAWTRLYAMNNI

SMILES | Kd
CC(C)c1c(O)ccc2c1CCC1C(C)(C)CCC[C@]21C (stereo not given in full) | > 4 mM (inactive)
Cc1noc(C)c1C(=O)NCc1ccco1 | > 4 mM (inactive)
CCCCn1c(=O)cc(O)c2ccccc21 | > 4 mM (inactive)
COC(=O)C1=CO[C@@H](O[C@@H]2O[C@H](CO)[C@@H](O)[C@H](O)[C@H]2O)[C@@H]2[C@@H](C)[C@@H](O)C[C@H]12 | > 4 mM (inactive)
Cc1nnsc1C(=O)Nc1cccc(S(N)(=O)=O)c1 | > 4 mM (inactive)
Cc1nn(CC(=O)Nc2ccccn2)c(=O)c2ccccc12 | > 4 mM (inactive)
CN1CCN(CC(=O)NC2CCCCC2)CC1 | > 4 mM (inactive)
COc1cc(OC)c2c(=O)c(O)c(-c3ccc(OC)c(OC)c3)oc2c1 | > 4 mM (inactive)
NC(CSCSCC(N)C(=O)O)C(=O)O (stereo not given) | > 4 mM (inactive)
O=C(CO)N/N=C/c1ccccc1F | > 4 mM (inactive)
Cc1cc(NC(=O)c2ccccc2C(=O)O)no1 | > 4 mM (inactive)
Cc1oc2nc3c(c(=O)[nH]c(=O)n3C)n2c1C | > 4 mM (inactive)
CN1CCn2c1nc(N1CCOCC1)nc2=O | > 4 mM (inactive)
O=C1C2C3C=CC(O3)C2C(=O)N1c1ccccc1 (stereo not given) | > 4 mM (inactive)
O=C(NC1=NCCS1)c1ccc(Cl)s1 | > 4 mM (inactive)
O=C(O)c1cccc(O)c1O | > 4 mM (inactive)
CC(C)n1c(Nn2cnnc2)nc2ccccc21 | > 4 mM (inactive)
COC(=O)C[C@@H]1C2(C)C(=O)[C@@H](CC3=C4CC(O)O[C@@H](c5ccoc5)[C@]4(C)CCC32)[C@H](O)C1(C)C (stereo not given in full) | > 4 mM (inactive)
CON(C)C(=O)Nc1ccc(Cl)cc1 | > 4 mM (inactive)
CC(=O)Nc1ccc(S(=O)(=O)N2CCN=C2C)cc1 | > 4 mM (inactive)
O=C(NC(=S)NN1CCOCC1)c1cccs1 | > 4 mM (inactive)
CC(=O)Nc1ccc(NC(C)=O)cc1 | > 4 mM (inactive)

SMILES | Kd
CN1CCC=C(C(=O)O)C1 | > 4 mM (inactive)
O=c1ccc2nc3ccccc3c(=O)n2[nH]1 | > 4 mM (inactive)
CC(CCC(=O)O)[C@H]1CCC2C3CC[C@@H]4CCCC[C@]4(C)C3CC[C@@]21C (stereo not given in full) | > 4 mM (inactive)
O=C(NC1CSCC1O)c1ccccc1 (stereo not given) | > 4 mM (inactive)
O=C1CCCN1c1ccc(S(=O)O)cc1 | > 4 mM (inactive)
O=C(COc1ccccc1Cl)N1CCCC1 | > 4 mM (inactive)
O=C(O)CCC(=O)Nc1nccs1 | > 4 mM (inactive)
Cc1nn(C)c(C)c1C(=O)O | > 4 mM (inactive)
CC(=O)Oc1c(C)cc(O)c2ccccc12 | > 4 mM (inactive)
CN=C(C)c1c(O)n(C)c(=S)n(C)c1=O | > 4 mM (inactive)
Nc1cc(N)nc(SCc2cccnc2)n1 | > 4 mM (inactive)
CN1CCCCC1c1ccc(-c2cccnc2)nc1 (stereo not given) | > 4 mM (inactive)
Cn1cccc1C(=O)NS(=O)(=O)c1ccccc1Cl | > 4 mM (inactive)
OCc1ccncc1 | > 4 mM (inactive)
N/C(=N/S(=O)(=O)c1cccs1)c1ccccc1 | > 4 mM (inactive)
NC(=O)CSc1nnnn1-c1ccccc1 | > 4 mM (inactive)
Cc1ccc(C(=O)N2CCC(C(N)=O)CC2)c(Cl)c1 | > 4 mM (inactive)
CC(=O)O[C@@H]1C=C[C@@]2(C)C(C[C@@H](OC(C)=O)[C@@]3(C)C4=CC(=O)O[C@@H](c5ccoc5)[C@]4(C)CCC23)C1(C)C (stereo not given in full) | > 4 mM (inactive)
O=C(O)c1cccnc1N1CCOCC1 | > 4 mM (inactive)
Cc1ccc(C(=O)Nn2cnnc2)c(Cl)c1 | > 4 mM (inactive)
O=c1[nH]c2ccc(S(=O)(=O)NC3CC3)cc2[nH]1 | > 4 mM (inactive)
CC(CC(O)C1OC1(C)C)[C@@H]1CCC2(C)C3=CCC4C(C)(C)C(=O)CCC4(C)C3CC[C@@]12C (stereo not given in full) | > 4 mM (inactive)

SMILES | Kd
c1ccc(-c2nsc(N3CCNCC3)n2)cc1 | > 4 mM (inactive)
CCNC(=O)CC[C@H](N)C(=O)O | > 4 mM (inactive)
N#CCSc1nnc2ccc3ccccc3n12 | > 4 mM (inactive)
Nc1n[nH]c(=S)n1-c1ccccc1 | > 4 mM (inactive)
COC(=O)c1scc(S(C)(=O)=O)c1-n1cccc1 | > 4 mM (inactive)
Nc1nc(N)nc(N2C(=O)c3ccccc3C2=O)n1 | > 4 mM (inactive)
NS(=O)(=O)c1ccc(NC(=O)C(F)(F)F)cc1 | > 4 mM (inactive)
Cc1cc(C)n(CC(=O)NC2CCCCC2)n1 | > 4 mM (inactive)
C=C[C@H]1CN2CC[C@H]1C[C@@H]2[C@@H](O)c1ccnc2ccc(OC)cc12 | > 4 mM (inactive)
NC(=O)C1CCN(C2CC(=O)NC2=O)CC1 (stereo not given) | > 4 mM (inactive)
Nc1ccc2nsnc2c1 | > 4 mM (inactive)
O=C(O)c1ccc2[nH]c3c(c2c1)CSCC3 | > 4 mM (inactive)
O=c1c(Cl)c(NCCO)ncn1-c1ccccc1 | > 4 mM (inactive)
C[C@@H]1O[C@@H](O[C@H]2CC[C@]3(C=O)C4CC[C@]5(C)[C@@H](C6=CC(=O)OC6)CC[C@]5(O)C4CC[C@]3(O)C2)[C@H](O)[C@H](O)[C@H]1O (stereo not given in full) | > 4 mM (inactive)
CC(=O)Nc1ccc(C)cc1NC(C)=O | > 4 mM (inactive)
OCC1=Cc2ccccc2OC1 | > 4 mM (inactive)
Cc1nc(-c2ccccc2)sc1CN | > 4 mM (inactive)
Cc1cccc(-c2nnc(-c3ccc(N)cc3)o2)c1 | > 4 mM (inactive)
CC1=CC2C(C(C)C)CCC(C)(O)C2CC1 (stereo not given) | > 4 mM (inactive)
C[C@H]1C(=O)CCC2[C@]3(C)CC[C@@]4(C)C5CC(C)(C)CC[C@]5(C)CC[C@]4(C)C3CC[C@@]21C (stereo not given in full) | > 4 mM (inactive)
COC(=O)C[C@H]1C2(C)CC34OC5(C)O[C@@]6([C@H](OC(C)=O)C(OC(C)=O)[C@]7(C)C(/C(=C(/O)C(C)C)C(=O)O[C@H]7c7ccoc7)[C@@]6(O5)[C@H](OC(C)=O)[C@@]3(O)C2OC(=O)C(C)C)[C@]14C (stereo not given in full) | > 4 mM (inactive)
CN1CCC(N2CCOCC2)CC1 | > 4 mM (inactive)

SMILES | Kd
Cn1c(CSc2nc3ccccc3s2)n[nH]c1=S | > 4 mM (inactive)
COc1ccc(C2(C)NC(=O)NC2=O)cc1 (stereo not given) | > 4 mM (inactive)
COc1ccc(C2(CN)CCOCC2)cc1OC | > 4 mM (inactive)
CC(=O)c1ccc(N2C(=O)C(C(C)C)NC2=S)cc1 (stereo not given) | > 4 mM (inactive)
CC1(C)Cc2cccc(C(=O)O)c2O1 | > 4 mM (inactive)
Cc1ccccc1CSc1nnc(C)n1N | > 4 mM (inactive)
O=c1ccn(Cc2ccccc2)c(=O)[nH]1 | > 4 mM (inactive)
NS(=O)(=O)c1ccc2c3c(cccc13)C(=O)N2 | > 4 mM (inactive)
O=C(O)C1CC2CC1CCC2O (stereo not given) | > 4 mM (inactive)
Nc1cc(=O)[nH]c(=O)n1-c1ccccc1 | > 4 mM (inactive)
C=C1C([C@]2(C)C(CC(=O)OC)[C@@](C)(COC(C)=O)OC(=O)C[C@@H]2OC(C)=O)[C@@H](OC=O)[C@H](OC(=O)C(OC(C)=O)C(C)CC)[C@@]2(C)[C@H](c3ccoc3)CC(=O)C12O (stereo not given in full) | > 4 mM (inactive)
Cc1c(/C=N/O)cnn1C | > 4 mM (inactive)
COc1ccc(-c2cn[nH]c2N)c(OC)c1 | > 4 mM (inactive)
CC(=O)O[C@@H]1C[C@@]2(C)[C@H](c3ccoc3)C[C@H]3O[C@]32[C@]2(C)C(=O)C(O)=C3C(C)(C)C(=O)C=C[C@]3(C)C12 (stereo not given in full) | > 4 mM (inactive)
c1ccc(CSc2ncccn2)cc1 | > 4 mM (inactive)
Nc1ncnc(NCCCO)c1[N+](=O)[O-] | > 4 mM (inactive)
COc1cc(OC)c2ccc(=O)oc2c1 | > 4 mM (inactive)
COc1ccc(-c2coc3cc(O)ccc3c2=O)cc1 | > 4 mM (inactive)
CC(=O)OC1CCC23C(=O)OC45CCC(C6=CC(=O)OC6)C4(C)CCC2C5CCC3(O)C1 (stereo not given) | > 4 mM (inactive)
CC12CCC3C(CC3(C)C)C(C)(CCC1=O)O2 (stereo not given) | > 4 mM (inactive)
O=C(NCCO)NC(=S)c1ccccc1 | > 4 mM (inactive)
O=C(Nc1nnc(-c2ccccc2Cl)o1)c1ccco1 | > 4 mM (inactive)

SMILES | Kd
COc1cc2c(c(OC)c1OC)-c1ccc(O)c(=O)cc1[C@@H](NC(C)=O)CC2 | > 4 mM (inactive)
CC(=O)N[C@@H](CC(=O)O)C(=O)N[C@@H](CCC(=O)O)C(=O)O (Ac-Asp-Glu-OH) | > 4 mM (inactive)
Cc1cc(NC(=O)c2cccc(N3C(=O)CCC3=O)c2)no1 | > 4 mM (inactive)
COc1ccc(-c2cc3nc4n(c(=O)c3s2)CCC4)cc1 | > 4 mM (inactive)
Cn1cnc2ccc([N+](=O)[O-])cc2c1=O | > 4 mM (inactive)
O=C(O)CS(=O)(=O)c1ccccc1 | > 4 mM (inactive)
CN1C(=O)c2ccc(C(=O)NCc3ccccc3)cc2C1=O | > 4 mM (inactive)
Cc1csc(SCC(=O)N2CCCC2)n1 | > 4 mM (inactive)
COc1ccc(-c2c(O)c3c(OC)c4c(cc3oc2=O)OC(C)(C)CC4)cc1 | > 4 mM (inactive)
O=C(c1ccco1)N1C(=O)c2cccc3cccc1c23 | > 4 mM (inactive)
CC(=O)Nc1sccc1C(N)=O | > 4 mM (inactive)
O=C1NC(=S)NC(=O)C1=Cc1ccccc1O | > 4 mM (inactive)
CCn1c(-c2c[nH]c3ccccc23)n[nH]c1=S | > 4 mM (inactive)
CC(C)=CCC/C(C)=C/CC/C(C)=C/CC/C(C)=C/CC/C(C)=C/CC/C(C)=C/CC/C(C)=C/CC/C(C)=C/CC/C(C)=C/CO | > 4 mM (inactive)
C[C@@H]1CCC2[C@](C)(CO)[C@@H](O)CC[C@]2(C)[C@@]12CC[C@@](CO)(CCO)O2 (stereo not given in full) | > 4 mM (inactive)
O=C(Nc1ccc2c(c1)OCO2)c1cccs1 | > 4 mM (inactive)
O=c1cc(O)nc(SCc2ccccc2)[nH]1 | > 4 mM (inactive)
NCc1cc2ccccc2s1 | > 4 mM (inactive)
COc1cc2nc[nH]c(=O)c2cc1OC | > 4 mM (inactive)
Cc1ccn(S(=O)(=O)c2ccc(F)cc2)n1 | > 4 mM (inactive)
COc1cc2c(cc1OC)C1(O)C(=O)c3ccc(O)c(C(=O)O)c3OC1CO2 (stereo not given) | > 4 mM (inactive)
O=C1CCC(=O)N1CNc1ccccc1 | > 4 mM (inactive)
